Assay [1] has as its system 2-HG production. Briefly: Plasma 2-HG inhibition (LC-MS metabolite analysis in plasma of AML PDx model). Format: in vivo, human.
Assay [2] relates to IDH1(R132H) primary human AML cells. Briefly: Bone marrow AML clearance (flow cytometry), human AML PDx models in NSG mice. Format: in vivo. Here is the method:
(§1) Compounds and Formulation. For in vivo studies, each test article is prepared at an appropriate concentration with vehicle. […] Compound A is prepared fresh at the appropriate concentrations with vehicle every 7 days and stored at 4° C. between doses. […] Cytarabine is prepared fresh weekly by dilution with sterile saline from stock solution of Cytarabine (injection 20 mg/mL, (Pfizer injectables')). Azacitidine (Sigma, Lot #MKBR7212) is formulated in sterile water and is prepared fresh daily immediately before dosing. In vivo human AML PDx models. […] Two models are used in the studies: […] As needed, splenocytes from tumor-bearing mice are used to propagate and expand the models, as described. Each test article is prepared as described above at an appropriate concentration with vehicle to give animals the doses tested in this study at a dosing volume of 10 μL/gram body weight. Mice receiving Compound A (PO, QD) are treated at the indicated doses for the duration of the study. The combination agents are dosed as follows: […] Treated mice are assessed in comparison to vehicle treated and naïve (non-tumor bearing) control mice. Body weight is recorded twice per week. […] AML PDx model propagation. […] Spleens are processed and splenocytes isolated as described below. Two hundred μL per subject of the splenocyte prep is injected IV (intravenous, tail vein) into recipient NSG mice. […] Once engraftment is confirmed, the mice are monitored biweekly until ready to be put on study. […] Submandibular blood is collected. Spleen/Splenocyte Processing and Prep. After excision, a spleen is weighed, and […] is placed in a standard sterile 15 mL polypropylene conical tube containing PBS, and placed on ice. […] The spleen is placed in ice cold sterile PBS in a 15 mL collection tube. The spleen is removed from the collection tube and placed in a 100 micron 50 mL conical tube cell strainer (BD Falcon #352360). The spleen is processed by gentle rubbing of the spleen tissue against the surface of the cell strainer with the end of a 5 mL syringe plunger in a circular motion. The surface of the strainer is rinsed with 10 mL room temperature sterile DPBS (HyClone SH30028) 3 times during the process. […] The cell pellet is collected by centrifugation (300×g) and washed three times with 30 mL sterile DPBS. The cells are counted and resuspended in DPBS at the desired implant concentration. Bone Marrow Collection. […] Flow cytometry analysis of human white cells. Submandibular blood samples from in vivo studies are collected. Fluor-conjugated antibody stains are added according to the manufacturer's instructions (anti-human CD33-PE (clone WM53, BD Cat #555450), anti-human CD14-APC (clone MφpP9, BD Cat #340436), anti-human CD15-V450 (clone HI98, BD Cat #561584), anti-human CD117-BV421 (clone YB5.B8, BD Cat #562434), anti-human […]7 (clone ICRF44, BD Cat #557754), anti-human […]7 (clone HI30, BD Cat #557748), and anti-human CD3-FITC (clone SK7, BD Cat #340542)). The samples are incubated for 30 minutes at room temperature, protected from light. After the incubation, 1.5 mL 1×BD Lyse/Fix (37° C., (BD #558049)) is added to each sample and incubated for 12 minutes at room temperature. The tubes are centrifuged at 300×g for 7 minutes. BD Lyse/Fix solution is aspirated and the cell pellet washed with stain/wash buffer 3 times (1 wash step consisted of: pellet resuspended in 3 mL stain/wash buffer, centrifuged at 300×g, aspirated wash). Fixed cells are then resuspended in 300 to 400 μL stain/wash buffer. Samples are analyzed on a Becton Dickinson FACSVerse Flow cytometer (Cat #651155 Serial #Z6511550447) using standard flow cytometry principles and techniques. Samples are analyzed on the same day as they are stained and fixed. Population gating and data analysis of percent population are performed in the FACSuite software on the FACSVerse cytometer. Percent population values from the data analysis are plotted in Graphpad Prism or in JMP13. […]
For orientation: In flow cytometry, cells or beads pass a laser one at a time.

The test system is the same in assay [3]. Briefly: AML clearance in peripheral blood (flow cytometry, % hCD33+hCD45+ of total white cells), human AML PDx models in NSG mice. In kind it is in vivo. To be noted: for AML clearance (% hCD33 + hCD45+ (of total white cells)): 2 mg/kg Cytarabine, IP, (QDx5, rest2)X2) 14 days off)x2, each value one animal, 2 mg/kg. On the procedure: as §1
Assay [4] has the same test system. Briefly: AML cell differentiation in blood (flow cytometry, % hCD33+hCD11b+ of hCD45+ cells), human AML PDx models in NSG mice. In kind it is in vivo. The note with it: for AML cell differentiation (% hCD33 + hCD11b+ (of hCD45+ cells)): 2 mg/kg Cytarabine, IP, (QDx5, rest2)X2) 14 days off)x2, each value one animal, 2 mg/kg. Here is the method:
as §1

Setting [5] is: 2 mg/kg Cytarabine, IP, (QDx5, rest2)X2) 14 days off)x2, each line one animal.
The mark [6] stands for this setting: 2 mg/kg Cytarabine, IP, (QDx5, rest2)X2) 14 days off) × 2, each line one animal.

Where “and” joins values, the source holds several entries; their conditions need not be identical. Equal values may be shown once.

As to `Nc1ccn([C@@H]2O[C@H](CO)[C@@H](O)[C@@H]2O)c(=O)n1` [Cytarabine, reference compound], in assay [1] (setting [5]), the “% Inhibition of 2-HG (plasma)” value was 78.844% and 68.361% and 88.982% and 79.768% and 71.68% and 76.685% and 68.331%. Moreover, the “Naive Subtracted 2-HG (plasma)” value in assay [1] (setting [5]) is 2.348 µM and 3.512 µM and 1.223 µM and 2.246 µM and 3.143 µM and 2.588 µM and 3.515 µM. For the same compound, the “Plasma 2-HG” value in assay [1] (setting [5]) was 3.256 µM and 4.42 µM and 2.131 µM and 3.154 µM and 4.051 µM and 3.496 µM and 4.423 µM. For the same compound, in assay [1] (group C: cytarabine (2 mg/kg), vehicle 100%), the “% plasma 2-HG (treatment group value)” value is listed as 24%. Moreover, in assay [2] (setting [6]), the “Bone Marrow AML Clearance: % hCD33 + hCD45+ (% of white cells)” value was 64.38% and 75.48% and 39.66% and 80.32%. In addition, the “Bone Marrow AML Clearance: % hCD45+ (% of white cells)” value in assay [2] (setting [6]) was 71.88% and 78.06% and 44.54% and 80.75%. In addition, in assay [2] (group C: cytarabine (2 mg/kg), vehicle 94%), the “% human AML cells in bone marrow (of white cells; lower = more clearance)” value worked out at 63%. The “AML clearance (% hCD33 + hCD45+ (of total white cells))” value in assay [3] (Treatment day 18) is 8.04% and 3.22% and 3.24% and 8.64% and 3.23% and 3.50% and 4.40%; in assay [3] (Treatment day 34), 9.07% and 2.02% and 3.5% and 2.54% and 1.79% and 2.04%; in assay [3] (Treatment day 47), 8.25% and 8.31% and 5.29% and 4.92% and 2.29% and 4.71% and 5.51%; in assay [3] (Treatment day 61), 17.63% and 29.86% and 14.99% and 42.59% and 15.49% and 29.04% and 29.58%; in assay [3] (Treatment day 75), 56.57% and 60.59% and 22.85% and 59.75% and 36.77% and 44.17%; in assay [3] (Treatment day 89), 76.67% and 78.11% and 57.04% and 81.53% and 79.57% and 68.92%. Moreover, the “AML clearance (% hCD33 + hCD45+ (of total white cells))” value in assay [3] (Treatment day −3) is 21.32% and 14.8% and 13.68% and 21.94% and 21.7% and 20% and 17.15%. Besides, the “% peripheral blood AML cells (treatment group value)” value in assay [3] (day 47, group C: cytarabine (2 mg/kg), vehicle 86%) is recorded as 5.2%. For the same compound, the “AML cell differentiation (% hCD33 + hCD11b+ (of hCD45+ cells))” value was 15.93% and 18.69% and 13.00% and 11.66% and 14.07% and 10.70% and 11.81% in assay [4] (Treatment day 18); 37.13% and 33.07% and 31.02% and 31.17% and 33.03% and 37.1% in assay [4] (Treatment day 34); 8.3% and 7.84% and 7.69% and 5.82% and 16.79% and 5.09% and 7.21% in assay [4] (Treatment day 47); 9.5% and 8.65% and 9.29% and 6.94% and 10.6% and 7.78% and 8.46% in assay [4] (Treatment day 61); 5.65% and 7.65% and 11.09% and 11.48% and 10% and 10.46% in assay [4] (Treatment day 75); 8.75% and 10.17% and 8.87% and 18.02% and 12.49% and 11.08% in assay [4] (Treatment day 89). Besides, in assay [4] (Treatment day −3), the “AML cell differentiation (% hCD33 + hCD11b+ (of hCD45+ cells))” value was 16.46% and 20.43% and 14.95% and 8.62% and 13.39% and 10.09% and 12.17%. The “% AML cell differentiation (treatment group value)” value in assay [4] (day 47, group C: cytarabine (2 mg/kg), vehicle 10%) was 8%.

Values taken from patent US12440493B2, “Combination therapy for treating cancer comprising substituted piperazines” (Eli Lilly and Company, priority 2020, dated 2025).
